“Also recorded” adds a separate entry of the source.
Assays:
[1] = system: clear cells; test: In vivo luminal microperfusion of cauda epididymidis; quantification of V-ATPase apical membrane accumulation / microvilli elongation in clear cells; set-up: species or system rat; details: for extension of V-ATPase-labeled microvilli versus control: mean±SEM; for effect on ANGII-induced V-ATPase apical accumulation and microvilli elongation: 10 min pre-treatment, then ANGII 20 min with agent present, PD123319 1 μM, losartan 1 μM, ODQ 3 μM, L-NAME 100 μM
Experimental: (§1) Rats were anesthetized and the cauda epididymidis was luminally perfused in vivo, harvested and fixed in PLP, as described previously (Beaulieu et al., 2005; Pastor-Soler et al., 2003; Wong and Yeung, 1978).
Immunofluorescence labeling was performed on cryostat sections, as described previously (Beaulieu et al., 2005; Pastor-Soler et al., 2003). Primary antibodies, the AGTR2 peptide and secondary antibodies used are listed in supplementary material. Slides were mounted in Vectashield (Vector Labs, Burlingame, Calif.) with or without DAPI. For confocal microscopy, nuclei were stained using TOPRO-3 iodide (Invitrogen, Carlsbad, Calif.). Immunostained sections were examined using a Nikon E800 microscope (Nikon Instruments, Melville, N.Y.). Digital images were acquired with IPLab Spectrum software (Scanalytics, Fairfax, Va.) and imported into Adobe Photoshop. Sections were also examined using a […] confocal microscope (Zeiss Laboratories). Z-series (0.1-μm interval) were imported into Volocity software (Improvision Inc., version 4.1) for 3D reconstruction and final animations were exported as Quicktime movies.
The level of accumulation of V-ATPase in clear cell microvilli was quantified using IPLab software as described previously (Beaulieu et al., 2005; Pastor-Soler et al., 2003). 10 μm sections of microperfused cauda epididymidis were immunostained under identical conditions, and confocal images were acquired using the same parameters. The segmentation procedure of IPLab was used to measure the area of V-ATPase-positive microvilli, which was normalized against the length of apical pole of each cell (Beaulieu et al., 2005; Pastor-Soler et al., 2003). At least three epididymides from different animals were perfused for each condition, and a minimum of 10 cells/tissue were examined for a total of at least 30 cells/condition.

[2] = system: proximal VD; test: Detection of proton secretion in cut-open proximal VD with a self-referencing proton-selective electrode; set-up: species or system rat; details: for proton secretion (effect of the added agent): ANGII 1 μM added to the bath, then concanamycin A 1 μM
Experimental: The proximal VD was cut open to expose the apical surface of the epithelium and anchored onto a custom-made chamber. Proton secretion was measured using a self-referencing proton-selective electrode, as described previously (Beaulieu et al., 2005; Breton et al., 1996; Smith et al., 2007).

[3] = system: clear cells; test: Immunogold electron microscopy and quantification of V-ATPase gold labeling in clear cells of perfused epididymis; type: in vivo, rat; details: luminal ANGII 1 μM vs control
Experimental: as §1
Pieces of PLP-fixed epididymis were embedded at −45° C. using HM20 resin (Electron Microscopy Sciences, Hatfield, Pa.) in a Leica EM AFS, and ultrathin sections were cut, as described previously (Da Silva et al., 2007; Pastor-Soler et al., 2003). Sections were immunostained for the V-ATPase A subunit, followed by goat anti-rabbit IgG coupled to 15 nm gold (Ted Pella, Reading, Calif.). Grids were examined in a JEOL 1011 electron microscope. Images were acquired using an AMT digital imaging system.
The number of V-ATPase associated gold particles on the apical membrane and microvilli was counted for each clear cell (Da Silva et al., 2007; Pastor-Soler et al., 2003). To determine the density of V-ATPase molecules along the apical membrane, the number of gold particles was divided by the length of apical membrane, including microvilli, of each cell. This value is referred to as “gold/μm apical membrane”. To determine the relative density of the V-ATPase at the cell surface, the number of gold particles was normalized for the width of the cell, measured at the base of the microvilli (gold/μm cell width).

Nc1nc2c(nc(Sc3ccc(Cl)cc3)n2[C@@H]2O[C@@H]3COP(=O)(O)O[C@H]3[C@H]2O)c(=O)[nH]1 [p-cpt-cGMP]
elongation of V-ATPase-rich microvilli compared to control ([1]; 1 mM in luminal perfusate, 20 min): significant elongation; also recorded: marked elongation

angiotensin II (DRVYIHPF; Angiotensin-2; UniProt P01019 25-32, looked up) [ANGII, peptide hormone; agonist of AGTR1 and AGTR2 receptors]
proton secretion (effect of the added agent) [2]: sustained increase in proton secretion | increase of concanamycin-sensitive proton secretion compared to control ([2]; ANGII 1 μM, measured 30 min after addition, n=7, P<0.05): 68% | extension of V-ATPase-labeled microvilli versus control ([1]; ANGII 0.1 μM in luminal perfusate, 20 min): 141±4% | extension of V-ATPase-labeled microvilli versus control ([1]; ANGII 1 μM in luminal perfusate, 20 min): 153±7% | V-ATPase-labeled microvilli seen by immunogold labeling [3]: longer and more numerous V-ATPase-labeled microvilli are detected | density of V-ATPase molecules in microvilli (Gold/μm apical membrane) ([3]; P<0.0005): significant increase | total number of V-ATPase molecules located at the cell surface (Gold/μm cell width) ([3]; P<0.0005): further amplified compared to control

Cc1cc(Cn2cnc3c2C[C@@H](C(=O)O)N(C(=O)C(c2ccccc2)c2ccccc2)C3)ccc1N(C)C [PD123319]
effect on ANGII-induced V-ATPase apical accumulation and microvilli elongation [1]: prevented the stimulatory effect of ANGII; also recorded: inhibited the effect of ANGII at both 0.1 and 1 μM concentrations

CCCCc1nc(Cl)c(CO)n1Cc1ccc(-c2ccccc2-c2nn[nH]n2)cc1 [Losartan]
effect on ANGII-induced V-ATPase apical accumulation and microvilli elongation [1]: no inhibitory effect

O=c1onc2cnc3ccccc3n12 [ODQ]
effect on ANGII-induced V-ATPase apical accumulation and microvilli elongation [1]: completely abolished

C/C=C/[C@H]1O[C@@](O)([C@@H](C)[C@H](O)[C@H](C)[C@H]2OC(=O)/C(OC)=C/C(C)=C/[C@@H](C)[C@@H](O)[C@@H](CC)[C@@H](O)[C@H](C)C/C(C)=C/C=C/[C@@H]2OC)C[C@@H](O[C@H]2C[C@@H](O)[C@H](OC(N)=O)[C@@H](C)O2)[C@@H]1C [concanamycin A]
proton secretion (effect of the added agent) [2]: markedly inhibited; also recorded: marked inhibition | effect of pre-incubation on the proton secretion response to ANGII ([2]; pre-incubation of the tissue for 10 min, data not shown): prevented the response to ANGII

From patent US20100316628A1, “AGENTS AND METHODS FOR TREATING RESPIRATORY DISORDERS” (THE GENERAL HOSPITAL CORPORATION, priority 2008, published 2010)
